Measured values from patent US9365851B2, “Spalt-like transcription factor 4 (SALL4) and uses thereof” (National University of Singapore, priority 2011, dated 2016).
Entries after “also recorded” stand apart in the source; their conditions may differ.

Tests used:
PTEN/AKT pathway = PTEN/AKT pathway expression in THP1 cells (Western blot); format: cell-based
Excerpt: To further evaluate the specificity of the SALL4/PTEN pathway, next investigated was whether wild type peptide treatment could affect the expression of PTEN and its downstream target, phosphorylated AKT (pAKT).

c-Myc = c-Myc protein expression in SNU-398 cells; format: cell-based, human
Procedure: Also tested was whether wt peptide could affect genes that were known to be activated by SALL4, such as c-Myc. SNU-398 cells treated with wt or Scr peptide were evaluated for c-Myc protein expression. No change was observed among SNU-398 cells that were not treated or treated with either wt, Scr or TSA. When combined, the observation on the biological effects of the peptide treatment and the expression of Pten/Akt pathway in these cells, it was noticed that the wt peptide and its role in cell death promotion was correlated to its effect on the expression levels of Pten/Akt.

SNU-398 cells = experiment: Cell viability assay (MTT/MTS); format: cell-based, human; conditions: for cell viability / number of viable cells: SNU-398 (high SALL4), 72 h; for cell viability upon SALL4 knockdown: SNU-398, MTS
Procedure: (§1) Cell viability was determined 72 hours after peptide treatments. Absorbance at 490 nm is directly correlated to cell viability. Wild type functional SALL4 peptide (wt), mutant non-functional SALL4 peptide (Mut.), trichostatin A (TSA), scrambled control peptide (Scr.), wild type peptide+PTEN inhibitor SF1670 (wt+Inh.) were given to the cells at the indicated concentration. PTEN inhibitor concentration was 400 nM. (31C, 31D) Western blot analyses of the effects of peptides on PTEN, AKT, and pAKT expression on SNU-398 (31C) and SNU-387 (31D) cells 72 hours following peptide treatments. 20 μM of wt or Scr. peptide or 100 nM of TSA was used. PTEN inhibitor concentration was 400 nM. (31E) Representative images show NOD/SCID mice transplanted with Scr peptide- and wt peptide-treated SNU-398 cells (left) and the dissected subcutaneous tumors (right). Arrow indicates subcutaneous tumor. (31F) Growth curve of subcutaneous tumors (left panel) and tumor weight of tumors dissected at day 26 post-transplantation (right panel). Results are mean±s.d. n=5; * P<0.05. (31G) Representative images show NOD/SCID mice transplanted with 3 million SNU-398 cells at the left flank and treated intraperitoneally for five consecutive days with 56 mg/kg body weight TAT-Mut. peptide or 60 mg/kg body weight wt peptide (top panel) and the dissected subcutaneous tumors (bottom). (31H) Tumor weight of tumors dissected at day 18 post-transplantation and post-treatment of mice treated intraperitoneally with TAT fusion peptides as described in 5 g. Results are mean±s.d. n=5; * P<0.05.
(§2) Cell viability assay (MTT) (Invitrogen) was performed according to the manufacturer's instructions. Briefly—10000 cells were seeded in 100 ul medium in 96 well plates. The next day cells were treated as indicated on the figures. At the designated time after the treatment 20 ul of 5 mg/ml MTT solution was added to each well. After 3.5 h incubation at 37 C the medium was removed and the reaction was terminated with a solution of 4 mM HCl, 0.1% Nondet P-40 (NP40) all in isopropanol in dark on orbital shaker for […]. at room temperature. The absorbance was read at 590 nm with a reference filter of 620 nm in Spectromax M3 (ABI) spectrophotometer.
Multiple leukemic and solid tumor cancer cell lines with high or low/no SALL4 expression (FIG. 10A) were chosen to test the biological effect(s) of the wild type peptide. Wild type or scrambled peptide was delivered into tumor cells at various concentrations, and their effects on cells were evaluated 72 hours post-treatment by the MTS cell viability assay. […] The effect of wild type peptide is SALL4-specific, as it had no effect on KBM5, an AML cell line with undetectable endogenous SALL4 expression. We were surprised to see that the wild type peptide had no effect on a high SALL4-expressing endometrioid cancer cell line, AN3CA. This prompted checking whether PTEN, a gene repressed by SALL4 through its interaction with NuRD 27, was present in this cell line. According to the model herein, the function of wild type peptide requires both the expression of SALL4 and intact SALL4 downstream target genes, such as PTEN. In tumor cells with PTEN deletion, even though wild type peptide could compete with endogenous SALL4 in interacting with the HDAC complex, an anti-proliferative effect might not be observed. Therefore, expression of PTEN was evaluated in AN3CA cells along with other cell lines. While PTEN protein was present in all the other cell lines, it was absent in AN3CA cells (FIG. 10C), with reported deletion mutation of the gene in this cell line 40,41. […] Furthermore, the anti-proliferative effect also required certain downstream targets, such as PTEN.
7000 cells were seeded in each wells of a microtiter plate in 100 μL of complete medium. Cells from each treatment were seeded in duplicate. Controls using the same medium without cells were set up in parallel. […]

SNU-387 cells = experiment: Cell viability assay (MTT/MTS); format: cell-based, human; conditions: for cell viability / number of viable cells: SNU-387 (low/no SALL4), 72 h
Procedure: as §1, §2
7000 cells were seeded in each wells of a microtiter plate in 100 μL of complete medium. Cells from each treatment were seeded in duplicate. Controls using the same medium without cells were set up in parallel. At various time points, 317 μg/mL of 3-(4,5-dimethylthiazol-2-yl)-5-(3-carboxymethoxyphenyl)-2-(4-sulfophenyl)-2H-tetrazolium (CellTiter96® AQueous One Solution Cell Proliferation Assay, Promega) was added to each well. After four hours incubation of the tetrazolium salt, absorbance at 490 nm was read by a microplate reader.

Compound	PTEN expression (PTEN/AKT pathway)	pAKT on Ser 473 (PTEN/AKT pathway)	c-Myc protein expression (c-Myc)	cell viability / number of viable cells (SNU-398 cells)	cell viability upon SALL4 knockdown (SNU-387 cells; SNU-387, MTS)	cell viability upon SALL4 knockdown (SNU-398 cells)	cell viability upon SALL4 knockdown (SNU-398 cells; listed as E5)	cell viability / number of viable cells (SNU-387 cells)	cell viability / number of viable cells (SNU-387 cells; listed as SALL4 peptide)	cell viability / number of viable cells (SNU-387 cells; listed as wt)	cell viability / number of viable cells (SNU-398 cells; listed as SALL4 peptide (wt))	cell viability / number of viable cells (SNU-398 cells; listed as wild type peptide)
CC(/C=C/C(=O)NO)=C\[C@@H](C)C(=O)c1ccc(N(C)C)cc1 [TSA, Trichostatin A, reference compound]	increased PTEN expression	significantly reduced	No change	effectively induced reduction in the number of viable HCC cells								
CTATTTAGCCAAAGGCAAA (short hairpin RNA, chemistry and delivery not given here, further chemistry not given here) [E5 shRNA]					number of viable cells was similar	number of viable cells decreased	decreased cell viability					
H-MSRRKQAKPQHI-OH [wt peptide, MSRRKQAKPQHI]	increased PTEN expression	significantly reduced	No change	decreased cell viability; also recorded: reduced the amount of living cells in dose dependent manner				had no effects; also recorded: did not affect the cell viability	had no effect	no change in cell viability	the number of viable cells was reduced	decreased cell viability
Scr peptide: same 12 amino acids as the wt peptide, but in a scrambled sequence; negative control (SRMRQKIHPKIQ) [reference compound]	No effect	No effect	No change	remained unaffected				no change in cell viability				
